Measurements taken from patent US12251383B2, “Methods and compositions for KRAS inhibitors” (The Board of Regents of the University of Texas System, priority 2019, dated 2025).

What was measured:
KRASWT = KRASWT (Homo sapiens, UniProt P01116); assay: Nucleotide exchange assay (intrinsic and SOS-mediated); type: biochemical
Procedure: Nucleotide exchange and release assays. Loading of fluorescent-labeled GDP (BODIPY-GDP; BGDP from hereon) to KRAS was conducted following previous reports (23, 47), with minor modifications. Purified KRAS was buffer-exchanged in NAP-5 column (GE Life Sciences) in low Mg^2+ buffer (25 mM Tris pH 7.5, 50 mM NaCl, and 0.5 mM MgCl2). The eluate was incubated with 10-fold molar excess of BGDP (Life Technologies) in the presence of 5 mM EDTA and 1 mM DTT for 1.5 h at 20° C. in the dark. Then 10 mM MgCl2 was added and the solution was incubated for 30 min at 20° C. Free nucleotide was removed by gel filtration using a PD-10 column (GE Life Sciences) that had been equilibrated with the reaction buffer (25 mM Tris-HCL pH 7.5, 50 mM NaCl, 1 mM MgCl2, and 1 mM DTT). The concentration of ^BGDPKRAS was determined using Bradford assay and a BGDP standard curve. Then the effect of ligands on the intrinsic rate of nucleotide release was monitored using the decrease in fluorescence with time as BGDP dissociates from KRAS in a 100 μL reaction mixture (96-well plate) of 0.5 μM B^GDPKRAS, 100 μM GTP and varying concentrations of ligand (0 to 25 μM); GTP was added just before measurements. To measure the rate of SOS-mediated nucleotide release, 0.5 μM SOS (residues 564-1049, Cytoskeleton Inc) was added after adding GTP, and fluorescence was immediately read (excitation: 485 nm, emission: 510 nm) using Tecan Infinite M200 plate reader. Intrinsic and SOS-mediated nucleotide exchange rates were monitored with the fluorescence intensity increase of BGTP as it displaces GDP from KRAS. A 100 μL reaction mixture was used containing 0.5 μM each of ^GDPKRAS, BGTP (and SOS) plus varying concentrations of ligand (0 to 25 μM); BGTP was added just before measurements. Experiments were conducted with minimal light and the reaction was monitored for 2 h at room temperature. Fluorescence intensities were normalized at 120 s and the traces were fit with linear or single exponential functions (Igor Pro, Wavemetrics).
The effect of compound 11 on intrinsic and GEF-dependent nucleotide release and exchange reactions was determined. […] In particular, 11 decreased the intrinsic rate of nucleotide exchange by ˜10-fold at >10 μM (Fig S4, top-left), but it has no effect on intrinsic nucleotide release (Appendix I, Figure S4, bottom-left). […] Since GTP hydrolysis is unlikely to occur within the timescale of the experiments disclosed herein (2, 3), a plausible interpretation of the former would be compromised GTP loading. This is possible if, for example, the ligand binds to the nucleotide free ‘transition state’ conformation of KRAS and induces reorganization of active site residues. […]

[1] = target: KRAS^G12D in the GTP state (Homo sapiens, UniProt P01116, G12D); assay: MST binding, GTP-state KRAS G12D
Chain of KRAS^G12D in the GTP state (P01116 1-188 isoform P01116-2 G12D): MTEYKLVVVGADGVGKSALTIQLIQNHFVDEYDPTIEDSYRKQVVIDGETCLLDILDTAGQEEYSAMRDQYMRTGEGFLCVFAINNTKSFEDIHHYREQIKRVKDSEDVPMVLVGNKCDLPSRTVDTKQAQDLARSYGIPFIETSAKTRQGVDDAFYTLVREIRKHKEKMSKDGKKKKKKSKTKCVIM
Description: FIGS. 1A-1D show representative data for the predicted binding mode and measured affinity of disclosed compound 11 to KRAS. (FIG. 1A) Structure of the catalytic domain of KRAS used for the virtual screening. Lobe1 (residues 1-86) and lobe2 (residues 87-166) are highlighted in different colors, as well as switches 1 (residues 30-40) and 2 (residues 60-75). The location of the target allosteric pocket p1 is indicated. (FIG. 1B) Chemical structure of compound 11. (FIG. 1C) Predicted binding pose of compound 11, with the key residues that make polar or vdW contacts with the ligand labeled. (FIG. 1D) Microscale thermophoresis (MST) experiments indicating direct binding of compound 11 to KRAS, along with dissociation constants (KD) derived from the curves. Changes in fluorescence upon titration of […] KRAS with increasing concentration of compound are shown: KRAS^WT (red), KRAS^G12C (green), KRAS^G12D (purple) and KRAS^Q61M (blue), each bound to the non-hydrolyzable GTP analogue, guanylyl imidodiphosphate (GNP). The same experiments indicated no binding to GDP-bound KRAS^G12D and KRAS^WT as well as Rap1B, which was used as control. […]

KRAS = assay: MST affinity for KRAS (G12D and other KRAS mutants); type: binding, human; details: MST KD
[2] = Solubility in DMSO and common solvents; type: physicochemical; details: DMSO

Chain of KRASWT (P01116 1-188 isoform P01116-2): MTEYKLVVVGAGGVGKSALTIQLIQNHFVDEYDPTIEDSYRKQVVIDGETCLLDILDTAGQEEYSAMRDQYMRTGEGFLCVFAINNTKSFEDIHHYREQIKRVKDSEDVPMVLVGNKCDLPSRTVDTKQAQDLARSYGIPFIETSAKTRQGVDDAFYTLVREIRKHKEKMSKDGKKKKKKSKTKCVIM

## Cc1nn2c(N3CCN(CCO)CC3)cc(-c3ccccc3)nc2c1-c1ccccc1 [Compound 11, 2-[4-(8-methyl-3,9-diphenyl-2,6,7-triazabicyclo[4.3.0]nona-2,4,7,9-tetraen-5-yl)piperazin-1-yl]ethanol]
KRASWT; SOS-mediated
  effect on SOS-mediated nucleotide exchange rate: slightly reduced
KRASWT; SOS-mediated (Fig S4 top-right)
  decrease of rate of nucleotide exchange: 1.1 fold
KRASWT; intrinsic
  effect on intrinsic nucleotide exchange rate: slightly reduced
KRASWT; intrinsic, at >10 μM
  decrease of intrinsic rate of nucleotide exchange: ~10 fold
[1]
  Kd: 400 to 700 nM

## Cc1cc(N2CCN(CCO)CC2)n2nc(C)c(-c3ccccc3)c2n1 [Compound 13]
KRAS
  weaker affinity for KRAS than compound 11: 6.5-7.1 fold
[2]
  solubility: readily soluble
